# Measured values published in patent US12377110B2, “Fospropofol methods and compositions” (Epalex Corporation, priority 2019, dated 2025).
# Columns and labels:
# [1] = Study A16 Part 1: PK of single ascending oral doses of fospropofol disodium (200 to 2000 mg), fasted healthy adults; type: in vivo, human; settings: for AUC(0-inf) / Cmax / Tmax / AUC(0-t) / half-life: both sexes, human, plasma
# Method: Part 1 of Study A16 was a double-blind, randomized, placebo-controlled study to investigate the safety-tolerability and PK of oral administration of single ascending doses of fospropofol disodium to healthy adult male and female volunteers.
# Subjects were healthy adults (age 18-55 years inclusive, BMI 18-29.9 kg/m^2). Separate cohorts of 12 subjects each were randomized to receive fospropofol disodium at doses of 200, 400, 800, 1000, 1200, 1600, or 2000 mg (n=10 per cohort) or matching placebo (n=2 per cohort).
# Subjects were admitted to the clinical unit for an overnight fast (Day −1), administered study drug on Day 1, and remained in the clinical unit until Day 2.
# Fospropofol disodium was formulated as powder in an HPMC capsule, each capsule containing 200 mg of fospropofol disodium (weight adjusted for water content). Placebo was administered as an appropriate number of matching capsules.
# Based on PK results from the early cohorts, sampling times were optimized beginning with Cohort 3 (800 mg) to preclose, 5, 10, 15, 20, 25, 30, 37, and 45, minutes and 1, 2, 4, 6, and 9 hours after closing.
# [2] = Study A17: PK of fospropofol and propofol after single oral dose of fospropofol disodium 800 mg in subjects with migraine
# Method: The study is planned to complete approximately 85 subjects. • Enrolled subjects will be asked to come to the study site for treatment when they experience a qualifying migraine headache. Dosing must occur within 4 hours after onset of the migraine symptoms. If treatment at the study site is not feasible or practicable within 4 hours after onset of migraine symptoms, subjects should use their usual medication for that headache and attempt to visit the clinic for treatment as soon as possible (within 4 hours) after onset of their next migraine headache. Dosing must occur within 60 days after enrollment (see Post-enrollment Period below). • At clinic check-in for treatment, study personnel will verify eligibility for closing regarding the criteria for a qualifying headache and adherence to post-enrollment study restrictions (see Eligibility for Dosing below). • Treatment will consist of a single oral dose of fospropofol disodium. […] Because the prevalence of migraine headaches is higher in women than in men, efforts will be made to enroll at least 50% women. • Subjects must meet the general inclusion and exclusion criteria listed below (Inclusion Criteria and Exclusion Criteria) at screening to be enrolled in the study. To be eligible for fospropofol disodium treatment after onset of a migraine headache, enrolled subjects must meet criteria specific to the presenting headache at clinic check-in (see Qualifying Headache below) and adhere to study restrictions specific to the period between enrollment and clinic check-in (see Post-enrollment Restrictions below). • Inclusion Criteria Subjects must meet all of the following criteria at screening to be enrolled in the study: • 1. Written informed consent approved by the Institutional Review Board (IRB) given before any study-related procedures are performed • 2. […] Complete abstinence alone can be used as a method of contraception. • 6. […] Able to comprehend the nature of the study, capable of giving written informed consent, and able to communicate effectively with clinic staff (as assessed by the investigator) • 8. Available to volunteer for the entire study duration and willing to adhere to all protocol requirements, including the post-enrollment restrictions (see Post-enrollment Restrictions below) • 9. Agrees not to post any information related to the study on any website or social media site (e.g., Facebook, Twitter, LinkedIn, Google+, etc.) until the entire trial has been completed • 10. Willing to forgo rescue medicine for at least 2 hours after initiation of treatment with study drug (see In-Clinic Rescue Medicine) • Exclusion Criteria Subjects to whom any of the following criteria apply at screening will be excluded: • 1. History of hemiplegic migraine (at any time in the past). • 2. History of headaches of any type occurring on ≥15 days/month during any of the 3 months prior to screening. • 3.
# [3] = 200, 400, 800, and 1000 mg cohorts
# [4] = oral fospropofol disodium 200 mg, mean
# [5] = oral fospropofol disodium 400 mg, mean
# [6] = oral fospropofol disodium 800 mg, mean
# [7] = oral fospropofol disodium 1000 mg, mean, n = 9
# [8] = oral fospropofol disodium 1600 mg, mean
# [9] = oral fospropofol disodium 2000 mg, mean
smiles,measurement,setting,value
"CC(C)c1cccc(C(C)C)c1O [propofol, 2,6-diisopropylphenol]",Dose proportionality of propofol AUC0-2h and Cmax,[1]; 200 mg to 2000 mg,close proportional
same,Dose proportionality of propofol AUC0-T and AUC0-∞,[1]; 200 mg to 2000 mg,slightly greater than close-proportional
same,Highest observed propofol Cmax relative to the mean Cmax of the cohort,[1]; [3],greater than 2 times
same,Highest observed propofol Cmax: standard deviations above the cohort mean,[1]; [3],greater than 2 standard deviations
same,Dose proportionality of propofol exposure (both Cmax and AUC),"[1]; 200 to 2000 mg, preliminary PK data",approximately close proportional
same,Highest observed propofol Cmax relative to mean Cmax,[1]; 800-mg cohort,approximately 3.7 fold
same,AUC(0-inf),"[1]; oral, 200 mg, Propofol AUC0-inf (arithmetic mean, n=10), after a single 200-mg capsule",118 ng·h/mL
same,AUC(0-inf),"[1]; oral, 200 mg, Propofol AUC0-inf (geometric mean, n=10), after a single 200-mg capsule",112 ng·h/mL
same,Cmax,"[1]; oral, 200 mg, Propofol Cmax (arithmetic mean, n=10), after a single 200-mg capsule",69.4 ng/mL
same,Cmax,"[1]; oral, 200 mg, Propofol Cmax (geometric mean, n=10), after a single 200-mg capsule",61.7 ng/mL
same,Tmax,"[1]; oral, 200 mg, Propofol median Tmax, 200-mg dose",30 min
same,Cmax,"[1]; oral, 800 mg, Highest observed propofol Cmax, 800-mg cohort",1350 ng/mL
same,Cmax,"[1]; oral, 800 mg, Mean propofol Cmax, 800 mg cohort",362 ng/mL
same,AUC(0-inf),"[1]; oral, 800 mg, Propofol AUC0-inf (arithmetic mean, n=10), single dose of 800 mg (four 200 mg capsules)",559 ng·h/mL
same,Cmax,"[1]; oral, 800 mg, Propofol Cmax (arithmetic mean, n=10), single dose of 800 mg (four 200 mg capsules)",362 ng/mL
same,Tmax,"[1]; oral, 1200 mg, Propofol Tmax (median), fasting conditions",37 min
same,Tmax,"[1]; oral, 2000 mg, Propofol median Tmax, doses of 1600 or 2000 mg",45 min
same,AUC(0-inf),"[1]; po, 200 mg, Propofol AUC0-∞, oral fospropofol disodium 200 mg, mean",118 ng·h/mL
same,Cmax,"[1]; po, 200 mg, Propofol Cmax Maximum, oral fospropofol disodium 200 mg",191 ng/mL
same,Cmax,"[1]; po, 200 mg, Propofol Cmax Mean (SD), oral fospropofol disodium 200 mg",69 ng/mL
same,Cmax,"[1]; po, 200 mg, Propofol Cmax Minimum, oral fospropofol disodium 200 mg",35.1 ng/mL
same,Cmax,"[1]; po, 200 mg, Propofol Cmax, oral fospropofol disodium 200 mg, mean",69 ng/mL
same,Tmax,"[1]; po, 200 mg, Propofol Tmax, oral fospropofol disodium 200 mg, median",30 min
same,AUC(0-inf),"[1]; po, 400 mg, Propofol AUC0-∞, oral fospropofol disodium 400 mg, mean",298 ng·h/mL
same,Cmax,"[1]; po, 400 mg, Propofol Cmax Maximum, oral fospropofol disodium 400 mg",499 ng/mL
same,Cmax,"[1]; po, 400 mg, Propofol Cmax Mean (SD), oral fospropofol disodium 400 mg",201 ng/mL
same,Cmax,"[1]; po, 400 mg, Propofol Cmax Minimum, oral fospropofol disodium 400 mg",33.5 ng/mL
same,Cmax,"[1]; po, 400 mg, Propofol Cmax, oral fospropofol disodium 400 mg, mean",201 ng/mL
same,Tmax,"[1]; po, 400 mg, Propofol Tmax, oral fospropofol disodium 400 mg, median",30 min
same,AUC(0-inf),"[1]; po, 800 mg, Propofol AUC0-∞, oral fospropofol disodium 800 mg, mean",577 ng·h/mL
same,Cmax,"[1]; po, 800 mg, Propofol Cmax Maximum, oral fospropofol disodium 800 mg",1350 ng/mL
same,Cmax,"[1]; po, 800 mg, Propofol Cmax Mean (SD), oral fospropofol disodium 800 mg",362 ng/mL
same,Cmax,"[1]; po, 800 mg, Propofol Cmax Minimum, oral fospropofol disodium 800 mg",127 ng/mL
same,Cmax,"[1]; po, 800 mg, Propofol Cmax, oral fospropofol disodium 800 mg, mean",362 ng/mL
same,Tmax,"[1]; po, 800 mg, Propofol Tmax, oral fospropofol disodium 800 mg, median",37.2 min
same,AUC(0-inf),"[1]; po, 1000 mg, Propofol AUC0-∞, oral fospropofol disodium 1000 mg, mean, n = 9",887 ng·h/mL
same,Cmax,"[1]; po, 1000 mg, Propofol Cmax Maximum, oral fospropofol disodium 1000 mg, n = 9",681 ng/mL
same,Cmax,"[1]; po, 1000 mg, Propofol Cmax Mean (SD), oral fospropofol disodium 1000 mg, n = 9",403 ng/mL
same,Cmax,"[1]; po, 1000 mg, Propofol Cmax Minimum, oral fospropofol disodium 1000 mg, n = 9",267 ng/mL
same,Cmax,"[1]; po, 1000 mg, Propofol Cmax, oral fospropofol disodium 1000 mg, mean, n = 9",403 ng/mL
same,Tmax,"[1]; po, 1000 mg, Propofol Tmax, oral fospropofol disodium 1000 mg, median, n = 9",45 min
same,Cmax,"[1]; po, 1200 mg, Propofol Cmax Maximum, oral fospropofol disodium 1200 mg",1190 ng/mL
same,Cmax,"[1]; po, 1200 mg, Propofol Cmax Mean (SD), oral fospropofol disodium 1200 mg",641 ng/mL
same,Cmax,"[1]; po, 1200 mg, Propofol Cmax Minimum, oral fospropofol disodium 1200 mg",193 ng/mL
same,Cmax,"[1]; po, 1600 mg, Propofol Cmax Maximum, oral fospropofol disodium 1600 mg",1170 ng/mL
same,Cmax,"[1]; po, 1600 mg, Propofol Cmax Mean (SD), oral fospropofol disodium 1600 mg",748 ng/mL
same,Cmax,"[1]; po, 1600 mg, Propofol Cmax Minimum, oral fospropofol disodium 1600 mg",229 ng/mL
same,AUC(0-inf),"[1]; po, 2000 mg, Propofol AUC0-∞, oral fospropofol disodium 2000 mg, mean",2250 ng·h/mL
same,Cmax,"[1]; po, 2000 mg, Propofol Cmax Maximum, oral fospropofol disodium 2000 mg",1620 ng/mL
same,Cmax,"[1]; po, 2000 mg, Propofol Cmax Mean (SD), oral fospropofol disodium 2000 mg",806 ng/mL
same,Cmax,"[1]; po, 2000 mg, Propofol Cmax Minimum, oral fospropofol disodium 2000 mg",200 ng/mL
same,Cmax,"[1]; po, 2000 mg, Propofol Cmax, oral fospropofol disodium 2000 mg, mean",806 ng/mL
same,Tmax,"[1]; po, 2000 mg, Propofol Tmax, oral fospropofol disodium 2000 mg, median",45 min
same,AUC(0-t),[1]; [4],103 ng·h/mL
same,half-life,[1]; [4],228 min
same,AUC(0-t),[1]; [5],276 ng·h/mL
same,half-life,[1]; [5],176 min
same,AUC(0-t),[1]; [6],551 ng·h/mL
same,half-life,[1]; [6],116 min
same,AUC(0-t),[1]; [7],846 ng·h/mL
same,half-life,[1]; [7],121 min
same,half-life,[1]; [8],177 min
same,AUC(0-t),[1]; [9],2000 ng·h/mL
same,half-life,[1]; [9],118 min
same,Propofol concentration relative to Cmax,[1]; by 4 hours after dosing,less than 25 % of Cmax
same,Propofol Cmax CV,[1]; oral fospropofol disodium 200 mg,64%
same,Propofol CL/F,[1]; [4],1889 L/h
same,Propofol Cmax CV,[1]; oral fospropofol disodium 400 mg,63%
same,Propofol CL/F,[1]; [5],1658 L/h
same,Propofol Cmax CV,[1]; oral fospropofol disodium 800 mg,99%
same,Propofol CL/F,[1]; [6],1561 L/h
same,Propofol CL/F,[1]; [7],1213 L/h
same,Propofol Cmax CV,"[1]; oral fospropofol disodium 1000 mg, n = 9",30%
same,Propofol Cmax CV,[1]; oral fospropofol disodium 1200 mg,46%
same,Propofol CL/F,"[1]; oral fospropofol disodium 1200 mg, Fasted (Cohort 5), n = 10, mean",1260 L/h
same,Propofol CL/F,"[1]; oral fospropofol disodium 1200 mg, mean",1260 L/h
same,Propofol Cmax CV,[1]; oral fospropofol disodium 1600 mg,44%
same,Propofol CL/F,[1]; [8],1182 L/h
same,Propofol Cmax CV,[1]; oral fospropofol disodium 2000 mg,51%
same,Propofol CL/F,[1]; [9],933 L/h
same,Variability in propofol log AUC1 accounted for by time-to-treatment,"[2]; 800 mg, 11 migraine subjects",~63%
same,Variability in propofol log AUC2 accounted for by time-to-treatment,"[2]; 800 mg, 11 migraine subjects",~55%
same,Variability in propofol log AUC4 accounted for by time-to-treatment,"[2]; 800 mg, 11 migraine subjects",~40%
same,Variability in propofol log Cmax accounted for by time-to-treatment,"[2]; 800 mg, 11 migraine subjects",~57%
same,"Association between time-to-treatment and log propofol Cmax, AUC1, AUC2, AUC4","[2]; 800 mg, 11 migraine subjects (all female)",statistically significant inverse association
same,Decrease of geometric mean propofol AUC1 per hour of delay in time-to-treatment,"[2]; 800 mg, linear regression",67.2 % per hour
same,Decrease of geometric mean propofol AUC1 per minute of delay in time-to-treatment,"[2]; 800 mg, linear regression",1.84 % per minute
same,Decrease of geometric mean propofol AUC2 per hour of delay in time-to-treatment,"[2]; 800 mg, linear regression",62.5 % per hour
same,Decrease of geometric mean propofol AUC2 per minute of delay in time-to-treatment,"[2]; 800 mg, linear regression",1.62 % per minute
same,Decrease of geometric mean propofol AUC4 per hour of delay in time-to-treatment,"[2]; 800 mg, linear regression",47.7 % per hour
same,Decrease of geometric mean propofol AUC4 per minute of delay in time-to-treatment,"[2]; 800 mg, linear regression",1.08 % per minute
same,Decrease of geometric mean propofol Cmax per hour of delay in time-to-treatment,"[2]; 800 mg, linear regression",58.5 % per hour
same,Decrease of geometric mean propofol Cmax per minute of delay in time-to-treatment,"[2]; 800 mg, linear regression",1.45 % per minute
same,"Ratio of mean propofol Auc4, migraine subjects (all female) to female healthy volunteers","[2]; Study A17 vs. Study A16 800 mg Cohort, females only",91%
